Assay results published in patent US6362369B1, “Phthalic acid diamide derivatives fluorine-containing aniline compounds as starting material, agricultural and horticultural insecticides, and a method for application of the insecticides” (Nihon Nohyaku Co., Ltd., priority 1997, dated 2002).

Tests used:
Type in all cases: in vivo
[1] = system: common cutworm (Spodoptera Litura); assay: Insecticidal effect on common cutworm (Test Example 2); conditions: 500 ppm, 25° C.; for Insecticidal effect (Test Example 2), judged from mortality / Insecticidal effect on common cutworm (Test Example 2), judged grade: cabbage leaf dip; for Insecticidal effect (Test Example 2), judged from mortality: 8 days after inoculation; for Insecticidal effect, Test Example 2: cabbage leaf immersed; for Insecticidal effect, Test Example 2 / Insecticidal effect on common cutworm (Test Example 2), judged grade: eight days after inoculation; for Insecticidal effect on common cutworm (Test Example 2), judged grade: second-instar larvae
Summary of the method: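 Mortality is the read-out: larvae are counted as dead or alive on day 8 and the percentage is graded by an effect criterion. Second-instar larvae are kept with the air-dried treated material in a sealed dish at 25° C, in triplicate groups of ten.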

[2] = system: diamondback moth (Plutella xylostella); assay: Insecticidal effect on diamondback moth (Test Example 1); conditions: for Insecticidal effect (Test Example 1), judged from mortality / Insecticidal effect, Test Example 1: diamondback moth; for Insecticidal effect (Test Example 1), judged from mortality: judged by the criterion of Test Example 1; for Insecticidal effect on diamondback moth (Test Example 1), judged grade: mortality judged according to the criterion shown in Test Example 1
Summary of the method: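 Chinese cabbage seedlings carrying eggs laid by released adult moths were immersed in treatment, air-dried and held at 25° C. Hatched insects were counted six days after immersion, and mortality was calculated and scored against a fixed criterion. Three replicate groups of 10 insects were used.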

[3] = system: rice leafroller (Cnaphalocrocis medinalis); assay: Insecticidal effect on rice leafroller (Test Example 3); conditions: 500 ppm, 25° C., humidity 70%; for Insecticidal effect (Test Example 3), judged from mortality / Insecticidal effect on rice leafroller (Test Example 3), judged grade: rice lamina dip; for Insecticidal effect (Test Example 3), judged from mortality: 4 days after inoculation; for Insecticidal effect, Test Example 3: rice lamina immersed; for Insecticidal effect, Test Example 3 / Insecticidal effect on rice leafroller (Test Example 3), judged grade: four days after inoculation; for Insecticidal effect on rice leafroller (Test Example 3), judged grade: third-instar larvae
Summary of the method: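 Groups of 10 third-instar larvae, in triplicate, are placed on air-dried lamina resting on wet filter paper. Incubation runs four days at 25° C with 70% humidity before survivors and dead are tallied.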

[4] = second-instar larvae of common cutworm
[5] = third-instar larvae of rice leafroller
[6] = judged by the mortality criterion of Test Example 1
[7] = common cutworm second-instar larvae
[8] = mortality judged by criterion of Test Example 1
[9] = rice leafroller third-instar larvae

SMILES: CCC(C)(C)NC(=O)c1c(I)cccc1C(=O)Nc1ccc(OC(F)F)cc1C [compound 1568]
- Insecticidal effect (Test Example 2), judged from mortality [1, 4]: A (100)
- Insecticidal effect (Test Example 1), judged from mortality [2]: A (100)
- Insecticidal effect (Test Example 3), judged from mortality [3, 5]: A (100)

SMILES: Cc1cc(OC(F)(F)C(F)C(F)(F)F)ccc1NC(=O)c1c(Cl)cccc1C(=O)NC(C)C (stereo not drawn) [compound 242]
- Insecticidal effect, Test Example 2 [1, 4]: B (99-90)
- Insecticidal effect, Test Example 1 [2, 6]: A (100)
- Insecticidal effect, Test Example 3 [3, 5]: A (100)

SMILES: Cc1cc(Oc2cccc(C(F)(F)F)c2)ccc1NC(=O)c1cccc(F)c1C(=O)NC(C)C [compound 519]
- Insecticidal effect on common cutworm (Test Example 2), judged grade [1]: A (100)
- Insecticidal effect on diamondback moth (Test Example 1), judged grade [2]: A (100)
- Insecticidal effect on rice leafroller (Test Example 3), judged grade [3]: A (100)

SMILES: Cc1cc(OC(F)(F)C(F)F)ccc1NC(=O)c1cccc(Br)c1C(=O)NC(C)C [compound 293]
- Insecticidal effect, Test Example 2 [1, 4]: A (100)
- Insecticidal effect, Test Example 1 [2, 6]: A (100)
- Insecticidal effect, Test Example 3 [3, 5]: A (100)

SMILES: Cc1cc(OC(F)(F)C(F)Cl)ccc1NC(=O)c1c(Br)cccc1C(=O)NC(C)C (stereo not drawn) [compound 329]
- Insecticidal effect, Test Example 2 [1, 4]: A (100)
- Insecticidal effect, Test Example 1 [2, 6]: A (100)
- Insecticidal effect, Test Example 3 [3, 5]: A (100)

SMILES: Cc1cc(OC(F)(F)C(F)F)ccc1NC(=O)c1cccc(F)c1C(=O)NC(C)C [compound 512]
- Insecticidal effect on common cutworm (Test Example 2), judged grade [1]: A (100)
- Insecticidal effect on diamondback moth (Test Example 1), judged grade [2]: A (100)
- Insecticidal effect on rice leafroller (Test Example 3), judged grade [3]: A (100)

SMILES: Cc1ccc(Cl)cc1NC(=O)c1cccc(I)c1C(=O)NC(C)C [compound 363]
- Insecticidal effect, Test Example 2 [1, 4]: A (100)
- Insecticidal effect, Test Example 1 [2, 6]: A (100)
- Insecticidal effect, Test Example 3 [3, 5]: A (100)

SMILES: CCN(CC)C(=O)c1cc(Cl)ccc1C(=O)Nc1ccc(C(F)(F)C(F)(F)F)cc1C [compound 1280]
- Insecticidal effect, Test Example 2 [1, 7]: A (100)
- Insecticidal effect, Test Example 1 [2, 8]: A (100)
- Insecticidal effect, Test Example 3 [3, 9]: A (100)

SMILES: Cc1ccc(Cl)cc1NC(=O)c1cccc([N+](=O)[O-])c1C(=O)NC(C)(C)C [compound 842]
- Insecticidal effect on common cutworm (Test Example 2), judged grade [1]: A (100)
- Insecticidal effect on diamondback moth (Test Example 1), judged grade [2]: A (100)
- Insecticidal effect on rice leafroller (Test Example 3), judged grade [3]: D (79-50)

SMILES: Cc1cc(C(F)(F)C(F)(F)F)ccc1NC(=O)c1cccc(I)c1C(=O)N1CCOCC1 [compound 1070]
- Insecticidal effect, Test Example 2 [1, 7]: A (100)
- Insecticidal effect, Test Example 1 [2, 8]: A (100)
- Insecticidal effect, Test Example 3 [3, 9]: A (100)

SMILES: Cc1cc(C(F)(F)C(F)(F)F)ccc1NC(=O)c1cccc(Cl)c1C(=O)NCc1cccc(Cl)c1 [compound 1335]
- Insecticidal effect, Test Example 2 [1, 7]: C (89-80)
- Insecticidal effect, Test Example 1 [2, 8]: A (100)
- Insecticidal effect, Test Example 3 [3, 9]: A (100)

SMILES: CC(C)NC(=O)c1c(F)cccc1C(=O)Nc1ccc(OC(F)(F)F)cc1Br [compound 509]
- Insecticidal effect on common cutworm (Test Example 2), judged grade [1]: A (100)
- Insecticidal effect on diamondback moth (Test Example 1), judged grade [2]: A (100)
- Insecticidal effect on rice leafroller (Test Example 3), judged grade [3]: A (100)

SMILES: Cc1cc(OC(F)(F)Br)ccc1NC(=O)c1cccc(I)c1C(=O)NC(C)(C)C [compound 1051]
- Insecticidal effect, Test Example 2 [1, 7]: A (100)
- Insecticidal effect, Test Example 1 [2, 8]: A (100)
- Insecticidal effect, Test Example 3 [3, 9]: A (100)

SMILES: Cc1cc(OC(F)(F)C(F)F)ccc1NC(=O)c1c(I)cccc1C(=O)NC(C)C [compound 453]
- Insecticidal effect on common cutworm (Test Example 2), judged grade [1]: D (79-50)
- Insecticidal effect on diamondback moth (Test Example 1), judged grade [2]: A (100)
- Insecticidal effect on rice leafroller (Test Example 3), judged grade [3]: A (100)

SMILES: Cc1cc(OC(F)(F)Br)ccc1NC(=O)c1c(I)cccc1C(=O)NC(C)C [compound 452]
- Insecticidal effect on common cutworm (Test Example 2), judged grade [1]: A (100)
- Insecticidal effect on diamondback moth (Test Example 1), judged grade [2]: A (100)
- Insecticidal effect on rice leafroller (Test Example 3), judged grade [3]: A (100)

SMILES: CC(C)NC(=O)c1c(I)cccc1C(=O)Nc1ccc(SC(F)F)cc1 [compound 354]
- Insecticidal effect, Test Example 2 [1, 4]: A (100)
- Insecticidal effect, Test Example 1 [2, 6]: A (100)
- Insecticidal effect, Test Example 3 [3, 5]: A (100)

SMILES: CC(C)NC(=O)c1c(Cl)cccc1C(=O)Nc1ccc(C(F)(C(F)(F)F)C(F)(F)F)cc1 [compound 89]
- Insecticidal effect, Test Example 2 [1, 4]: B (99-90)
- Insecticidal effect, Test Example 1 [2, 6]: A (100)
- Insecticidal effect, Test Example 3 [3, 5]: A (100)

SMILES: CCC(C)NC(=O)c1c(C(=O)Nc2cc(Cl)ccc2C)cccc1[N+](=O)[O-] (stereo not drawn) [compound 838]
- Insecticidal effect on common cutworm (Test Example 2), judged grade [1]: C (89-80)
- Insecticidal effect on diamondback moth (Test Example 1), judged grade [2]: A (100)
- Insecticidal effect on rice leafroller (Test Example 3), judged grade [3]: A (100)

SMILES: CC(C)NC(=O)c1c(F)cccc1C(=O)Nc1ccc(OC(F)(F)C(F)OC(F)(F)C(F)(F)C(F)(F)F)cc1 (stereo not drawn) [compound 476]
- Insecticidal effect on common cutworm (Test Example 2), judged grade [1]: A (100)
- Insecticidal effect on diamondback moth (Test Example 1), judged grade [2]: A (100)
- Insecticidal effect on rice leafroller (Test Example 3), judged grade [3]: A (100)

SMILES: Cc1cc(C(F)(F)C(F)(F)C(F)(F)C(F)(F)F)ccc1NC(=O)c1cccc(Cl)c1C(=O)NC(C)C [compound 132]
- Insecticidal effect, Test Example 2 [1, 4]: A (100)
- Insecticidal effect, Test Example 1 [2, 6]: A (100)
- Insecticidal effect, Test Example 3 [3, 5]: A (100)

SMILES: Cc1ccc(NC(=O)c2cccc(Br)c2C(=O)NC(C)C)c(C)c1Cl [compound 270]
- Insecticidal effect, Test Example 2 [1, 4]: A (100)
- Insecticidal effect, Test Example 1 [2, 6]: A (100)
- Insecticidal effect, Test Example 3 [3, 5]: A (100)

SMILES: Cc1cc(C(F)(C(F)(F)F)C(F)(F)F)ccc1NC(=O)c1c(I)cccc1C(=O)NC(C)C [compound 439]
- Insecticidal effect, Test Example 2 [1, 4]: A (100)
- Insecticidal effect, Test Example 1 [2, 6]: A (100)
- Insecticidal effect, Test Example 3 [3, 5]: A (100)

SMILES: CCN(CC)C(=O)c1c(Cl)cccc1C(=O)Nc1ccc(C(F)(F)C(F)(F)F)cc1C [compound 1535]
- Insecticidal effect (Test Example 2), judged from mortality [1, 4]: A (100)
- Insecticidal effect (Test Example 1), judged from mortality [2]: A (100)
- Insecticidal effect (Test Example 3), judged from mortality [3, 5]: A (100)

SMILES: CC(C)NC(=O)c1c(I)cccc1C(=O)Nc1ccc(C(F)(F)F)cc1Cl [compound 369]
- Insecticidal effect, Test Example 2 [1, 4]: A (100)
- Insecticidal effect, Test Example 1 [2, 6]: A (100)
- Insecticidal effect, Test Example 3 [3, 5]: A (100)

SMILES: CCC(C)(C)NC(=O)c1c(F)cccc1C(=O)Nc1ccc(C(F)(F)C(F)(F)F)cc1C [compound 1152]
- Insecticidal effect, Test Example 2 [1, 7]: A (100)
- Insecticidal effect, Test Example 1 [2, 8]: A (100)
- Insecticidal effect, Test Example 3 [3, 9]: A (100)

SMILES: CC(C)NC(=O)c1c(C(=O)Nc2ccc(C(F)(F)C(F)(F)F)cc2)cccc1[N+](=O)[O-] [compound 890]
- Insecticidal effect on common cutworm (Test Example 2), judged grade [1]: A (100)
- Insecticidal effect on diamondback moth (Test Example 1), judged grade [2]: A (100)
- Insecticidal effect on rice leafroller (Test Example 3), judged grade [3]: A (100)

SMILES: CC(C)NC(=O)c1c(Cl)cccc1C(=O)Nc1ccc(C(F)(F)C(F)(F)C(F)(F)F)cc1F [compound 1494]
- Insecticidal effect (Test Example 2), judged from mortality [1, 4]: A (100)
- Insecticidal effect (Test Example 1), judged from mortality [2]: A (100)
- Insecticidal effect (Test Example 3), judged from mortality [3, 5]: A (100)

SMILES: CC(C)NC(=O)c1c(I)cccc1C(=O)Nc1ccc2nc(C(C)C)sc2c1 [compound 1764]
- Insecticidal effect (Test Example 2), judged from mortality [1, 4]: A (100)
- Insecticidal effect (Test Example 1), judged from mortality [2]: A (100)
- Insecticidal effect (Test Example 3), judged from mortality [3, 5]: A (100)

SMILES: Cc1cc(C(F)(F)C(F)(F)F)ccc1N(C)C(=O)c1cccc(I)c1C(=O)N(C)C [compound 1120]
- Insecticidal effect, Test Example 2 [1, 7]: A (100)
- Insecticidal effect, Test Example 1 [2, 8]: A (100)
- Insecticidal effect, Test Example 3 [3, 9]: A (100)

SMILES: CCN(CC)C(=O)c1c(Cl)cccc1C(=O)Nc1ccc(OC(F)F)cc1C [compound 1538]
- Insecticidal effect (Test Example 2), judged from mortality [1, 4]: A (100)
- Insecticidal effect (Test Example 1), judged from mortality [2]: A (100)
- Insecticidal effect (Test Example 3), judged from mortality [3, 5]: A (100)

SMILES: Cc1c(NC(=O)c2ccccc2C(=O)NC(C)C)cccc1OC(F)(F)C(F)Cl (stereo not drawn) [compound 61]
- Insecticidal effect, Test Example 2 [1, 4]: B (99-90)
- Insecticidal effect, Test Example 1 [2, 6]: A (100)
- Insecticidal effect, Test Example 3 [3, 5]: A (100)
